Legend:
[1] = specific detection of 20 amino acids by arginine fluorescent sensors; assay type: biochemical; settings: FIG. 8
[2] = molecular target: T1, STM4351-199/200-cpYFP, SEQ ID NO: 22, expressed in the cytosol of HeLa cells (arginine-binding protein STM4351 derived from Salmonella Typhimurium, SEQ ID NO: 1 (Salmonella enterica, UniProt Q8ZKA9, INS199[…]); test: dynamic monitoring of arginine transmembrane transport in HeLa cells; assay type: cell-based; settings: after 2 hours of starvation, 10 mM arginine, 20 minutes
T1 construct: expressed in cytosol of HeLa cells from pAAV plasmid
Method: • 1. PAAV-based arginine optical sensor plasmids were transfected into HeLa by using the transfection reagent Lipofectamine2000 (Invitrogen) and incubated in a cell incubator at 37° C. with 5% CO2. After the exogenous gene was fully expressed for 24˜36 hours, the fluorescence detection was performed. • 2. After induction of expression, adherent HeLa cells were washed three times with PBS and placed in HMS solution for fluorescence microscopy and microplate reader assays, respectively.
36 hours after transfection of HeLa cells with plasmids encoding cytosolically expressed optical sensor STM4351-199/200-cpYFP, cells were rinsed using PBS, placed in HMS solution, and then changes in the ratio of the fluorescence intensity at 528 nm emission excited at 420 nm to that at 528 nm emission excited at 485 nm were detected over 40 min. After 2 hours of starvation, the ratio 485/420 increased gradually after adding 10 mM arginine for 20 minutes, and the highest ratio was 2.2 times. Same as STM4351-105/110-cpYFP sensor and STM4351-200/203-cpYFP sensor.

[3] = molecular target: T2, STM4351-107/111-cpYFP variant S30N, SEQ ID NO: 40 (arginine-binding protein STM4351 derived from Salmonella Typhimurium) (Salmonella enterica, UniProt Q8ZKA9, DELINS108-110[…]/S30N); test: fluorescence detection of mutated cpYFP optical sensor; assay type: biochemical; settings: S30N-107/111; detected according to Example 2
T2 construct: His-tag, pET28a, E. coli JM109(DE3), purified
Method: (§1) • 1. The pET28a based arginine sensor plasmid was transformed into JM109 (DE3), incubated inverted overnight, and the clones were picked from the plates into 250 ml Erlenmeyer flasks, placed in a shaker at 37° C. and incubated at 220 rpm to OD=0.4-0.8, then 1/1000 (V/V) of IPTG (1 M) was added to induce expression at 18° C. for 24-36 h. • 2. Upon completion of inducible expression, cells were harvested by centrifugation at 4000 rpm for 30 min, resuspended in 50 mM phosphate buffer and disrupted ultrasonically until the broth were clear, centrifuged at 9600 rpm at 4° C. for 20 min. • 3. […] 100 μl 5 μM of protein solution was taken, incubated at 37° C. for 5 min, arginine was added to mix to a final concentration of 100 mM, respectively, the optical absorption of the protein at 340 nm was determined using a multifunctional fluorescence microplate reader. • 6. 100 μl 1 μM of fluorescent sensor solution was taken, incubated at 37° C. for 5 min, arginine was added for titration, and the fluorescence intensity of 528 nm emission after 485 nm fluorescence excitation of the protein was measured. The fluorescence excitation and emission determination of the samples were done using a multifunctional fluorescence microplate reader. • 7. […] Determination of the absorption and fluorescence spectra of the samples was done by spectrophotometer and spectrofluorometer. […]

[4] = molecular target: T3, STM4351-107/111-cpYFP variant D177N, SEQ ID NO: 41 (arginine-binding protein STM4351 derived from Salmonella Typhimurium) (Salmonella enterica, UniProt Q8ZKA9, D177N/DELINS108-110[…]); test: as above; assay type: biochemical; settings: D177N-107/111; detected according to Example 2
T3 construct: His-tag, pET28a, E. coli JM109(DE3), purified
Method: as §1

[5] = molecular target: T4, STM4351-104/110-cpYFP, SEQ ID NO: 7 (arginine-binding protein STM4351 derived from Salmonella Typhimurium, SEQ ID NO: 1) (Salmonella enterica, UniProt Q8ZKA9, DELINS105-109[…]); test: fluorescence spectra of sensor with and without arginine; assay type: biochemical; settings: 500 mM vs 0 mM arginine
T4 construct: His-tag, pET28a, E. coli JM109(DE3), purified
Method: as §1

[6] = molecular target: T5, STM4351-cpYFP fusion protein, insertion site 199/200, SEQ ID NO: 22 (arginine-binding protein STM4351 derived from Salmonella Typhimurium, SEQ ID NO: 1) (Salmonella enterica, UniProt Q8ZKA9, INS199[…]); test: concentration gradient arginine detection (fluorescence ratio titration)
T5 construct: His-tag, pET28a, E. coli JM109(DE3), purified
Method: (§2) • 1. The pET28a based arginine sensor plasmid was transformed into JM109 (DE3), incubated inverted overnight, and the clones were picked from the plates into 250 ml Erlenmeyer flasks, placed in a shaker at 37° C. and incubated at 220 rpm to OD=0.4-0.8, then 1/1000 (V/V) of IPTG (1 M) was added to induce expression at 18° C. for 24-36 h. • 2. Upon completion of inducible expression, cells were harvested by centrifugation at 4000 rpm for 30 min, resuspended in 50 mM phosphate buffer and disrupted ultrasonically until the broth were clear, centrifuged at 9600 rpm at 4° C. for 20 min. • 3. The centrifuged supernatant was used to obtain protein by purification through a self packed nickel column affinity chromatography column, and the protein obtained after nickel column affinity chromatography was further used to obtain protein dissolved in 20 mM MOPS buffer (pH 7.4) or phosphate buffer PBS. • 4. After purified arginine-binding protein muteins were subjected to SDS-PAGE, sensors were diluted to a protein solution having a final concentration of 5-10 μM using assay buffer (100 mm HEPES, 100 mM NaCl, pH 7.3) or phosphate buffer PBS. Arginine was formulated as a stock solution at a final concentration of 1 M with assay buffer (20 mM MOPS, pH 7.4) or phosphate buffer PBS. • 5. 100 μl 5 μM of protein solution was taken, incubated at 37° C. for 5 min, arginine was added to mix to a final concentration of 100 mM, respectively, the optical absorption of the protein at 340 nm was determined using a multifunctional fluorescence microplate reader. • 6. 100 μl 1 μM of fluorescent sensor solution was taken, incubated at 37° C. for 5 min, arginine was added for titration, and the fluorescence intensity of 528 nm emission after 485 nm fluorescence excitation of the protein was measured. The fluorescence excitation and emission determination of the samples were done using a multifunctional fluorescence microplate reader. • 7. 100 μl 1 μM of fluorescent sensor solution was taken, incubated at 37° C. for 5 min, and arginine was added to determine the absorption and fluorescence spectra of the sensor proteins. Determination of the absorption and fluorescence spectra of the samples was done by spectrophotometer and spectrofluorometer.

[7] = molecular target: T6, STM4351-cpYFP fusion protein, insertion site 200/205, SEQ ID NO: 29 (arginine-binding protein STM4351 derived from Salmonella Typhimurium, SEQ ID NO: 1) (Salmonella enterica, UniProt Q8ZKA9, DELINS201-204[…]); test: as above
T6 construct: His-tag, pET28a, E. coli JM109(DE3), purified
Method: as §2

[8] = molecular target: T7, STM4351-cpYFP fusion protein, insertion site 105/110, SEQ ID NO: 11 (arginine-binding protein STM4351 derived from Salmonella Typhimurium, SEQ ID NO: 1) (Salmonella enterica, UniProt Q8ZKA9, DELINS107-109[…]); test: as above
T7 construct: His-tag, pET28a, E. coli JM109(DE3), purified
Method: as §2

[9] = molecular target: T8, STM4351-cpYFP fusion protein, insertion site 200/203, SEQ ID NO: 27 (arginine-binding protein STM4351 derived from Salmonella Typhimurium, SEQ ID NO: 1) (Salmonella enterica, UniProt Q8ZKA9, DELINS201-202[…]); test: as above
T8 construct: His-tag, pET28a, E. coli JM109(DE3), purified
Method: as §2

[10] = molecular target: T5, STM4351-cpYFP fusion protein, insertion site 199/200, SEQ ID NO: 22 (arginine-binding protein STM4351 derived from Salmonella Typhimurium, SEQ ID NO: 1); test: screening of purified fusion protein for arginine response; assay type: biochemical; settings: cpYFP at 199/200; 100 mM arginine vs without arginine
Method: as §2

[11] = molecular target: T6, STM4351-cpYFP fusion protein, insertion site 200/205, SEQ ID NO: 29 (arginine-binding protein STM4351 derived from Salmonella Typhimurium, SEQ ID NO: 1); test: as above; assay type: biochemical; settings: cpYFP at 200/205; 100 mM arginine vs without arginine
Method: as §2

[12] = molecular target: T7, STM4351-cpYFP fusion protein, insertion site 105/110, SEQ ID NO: 11 (arginine-binding protein STM4351 derived from Salmonella Typhimurium, SEQ ID NO: 1); test: as above; assay type: biochemical; settings: cpYFP at 105/110; 100 mM arginine vs without arginine
Method: as §2

[13] = molecular target: T9, STM4351-cpYFP fusion protein, insertion site 104/110, SEQ ID NO: 7 (arginine-binding protein STM4351 derived from Salmonella Typhimurium, SEQ ID NO: 1) (Salmonella enterica, UniProt Q8ZKA9, DELINS105-109[…]); test: as above; assay type: biochemical; settings: cpYFP at 104/110; 100 mM arginine vs without arginine
T9 construct: His-tag, pET28a, E. coli JM109(DE3), purified
Method: as §2

[14] = molecular target: T8, STM4351-cpYFP fusion protein, insertion site 200/203, SEQ ID NO: 27 (arginine-binding protein STM4351 derived from Salmonella Typhimurium, SEQ ID NO: 1); test: as above; assay type: biochemical; settings: cpYFP at 200/203; 100 mM arginine vs without arginine
Method: as §2

[15] = molecular target: T10, STM4351-cpYFP fusion protein, insertion site 107/111, SEQ ID NO: 15 (arginine-binding protein STM4351 derived from Salmonella Typhimurium, SEQ ID NO: 1) (Salmonella enterica, UniProt Q8ZKA9, DELINS108-110[…]); test: as above; assay type: biochemical; settings: cpYFP at 107/111; 100 mM arginine vs without arginine
T10 construct: His-tag, pET28a, E. coli JM109(DE3), purified
Method: as §2

Molecule	specificity for arginine [1]	highest ratio 485/420 [2] [times]	response to arginine relative to control [3]	response to arginine relative to control [4]	decrease of fluorescence intensity excited at 420 nm ([5]; excited at 420 nm) [times]	increase in fluorescence intensity under excitation at 485 nm ([5]; excited at 485 nm) [fold]	change amplitude [6] [times]	change amplitude [7] [times]	change amplitude [8] [times]	change amplitude [9] [times]	response to arginine relative to control [10]	response to arginine relative to control [11]	response to arginine relative to control [12]	response to arginine relative to control [13]	response to arginine relative to control [14]	response to arginine relative to control [15]
199/201: arginine sensor: cpYFP inserted at site 199/201 of STM4351	good specificity for arginine															
N=C(N)NCCC[C@H](N)C(=O)O [arginine]		2.2	more than 3 times	more than 3 times	1.4	2.0	11.0	3.0	4.3	8.6	more than 2 fold	more than 2 fold	more than 2 fold	more than 2 fold	more than 2 fold	more than 2 fold

From patent publication US20230296616A1, “ARGININE FLUORESCENT PROBE, PREPARATION METHOD THEREFOR AND APPLICATION THEREOF” (East China University of Science and Technology, priority 2020, published 2023)
